Data: ChEMBL document CHEMBL4257535, “Design, synthesis and biological evaluation of AKT inhibitors bearing a piperidin-4-yl appendant” (Medchemcomm, 2018)
The source made the active and inactive calls. No cut-off for these calls is given here.

Tests used:
[1] = molecular target: T1, RAC-alpha serine/threonine-protein kinase (Homo sapiens, UniProt P31749); experiment: Inhibition of AKT1 (unknown origin) at 1 uM using biotin-labelled STK as substrate measured after 45 mins by HTRF method relative to control
T1 sequence (P31749 whole entry): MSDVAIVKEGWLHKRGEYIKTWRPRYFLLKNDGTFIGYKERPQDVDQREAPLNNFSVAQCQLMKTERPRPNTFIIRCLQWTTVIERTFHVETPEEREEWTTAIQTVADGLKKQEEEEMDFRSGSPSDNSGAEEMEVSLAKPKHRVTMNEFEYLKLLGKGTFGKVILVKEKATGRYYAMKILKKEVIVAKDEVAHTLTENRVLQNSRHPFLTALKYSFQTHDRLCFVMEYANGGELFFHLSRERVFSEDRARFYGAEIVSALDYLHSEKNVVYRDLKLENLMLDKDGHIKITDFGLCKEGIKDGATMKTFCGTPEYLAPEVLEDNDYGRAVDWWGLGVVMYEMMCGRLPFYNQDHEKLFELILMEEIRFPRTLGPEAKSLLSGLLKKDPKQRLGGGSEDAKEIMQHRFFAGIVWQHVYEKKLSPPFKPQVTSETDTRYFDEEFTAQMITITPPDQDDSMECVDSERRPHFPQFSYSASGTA

PC-3 = experiment: Antiproliferative activity against human PC3 cells after 72 hrs by MTT assay; type: functional, cell-based; settings: PC-3, 72 h
[2] = molecular target: T1, RAC-alpha serine/threonine-protein kinase; experiment: Inhibition of AKT1 (unknown origin) at 0.1 uM using biotin-labelled STK as substrate measured after 45 mins by HTRF method relative to control
[3] = molecular target: T1, RAC-alpha serine/threonine-protein kinase; experiment: Inhibition of AKT1 (unknown origin) using biotin-labelled STK as substrate measured after 45 mins by HTRF method
[4] = molecular target: T1, RAC-alpha serine/threonine-protein kinase; experiment: Inhibition of AKT1 (unknown origin) at 50 nM using biotin-labelled STK as substrate measured after 45 mins by HTRF method relative to control
in vitro [5] = experiment: in vitro; design: dose or concentration left out as unconfirmed; settings: human, liver microsomes
Description: Half life in human liver microsomes at 10 mM preincubated for 10 mins followed by NADPH addition by LC-MS analysis

in vitro [6] = experiment: in vitro; design: dose or concentration left out as unconfirmed; settings: human, liver microsomes; remark: listed apart in the source
Description: Intrinsic clearance in human liver microsomes at 10 mM preincubated for 10 mins followed by NADPH addition and measured after 5 to 60 mins by LC-MS analysis

[7] = molecular target: T1, RAC-alpha serine/threonine-protein kinase; experiment: Inhibition of AKT in human PC3 cells assessed as reduction in GSK3beta phosphorylation at 1 to 10 uM after 4 hrs by Western blot analysis; type: cell-based
in vitro [8] = experiment: in vitro; design: dose or concentration left out as unconfirmed; settings: human, liver microsomes; remark: listed apart in the source
Description: Stability in human liver microsomes assessed as parent compound remaining at 10 mM preincubated for 10 mins followed by NADPH addition and measured after 60 mins by LC-MS analysis

Row | SMILES | inhibition [1] [%] | IC50 (PC-3) [µM] | inhibition [2] [%] | other results
1 | O=C(N1CCN(c2ncnc3ccccc23)CC1)C1(c2ccc(Cl)c(Cl)c2)CCNCC1 | 21.9 | 14 | – | –
2 | O=C(N1CCN(c2ncnc3[nH]cnc23)CC1)C1(c2ccc(Br)cc2)CCNCC1 | 68 | > 40 | – | –
3 | O=C(N1CCN(c2ncnc3[nH]nc(Br)c23)CC1)C1(c2ccc(Cl)c(Cl)c2)CCNCC1 | 93.8 | 10.3 | 90.9 | IC50 [3]: 0.0305 µM
4 | O=C(N1CCN(c2ncnc3[nH]cnc23)CC1)C1(c2ccc(Cl)c(Cl)c2)CCNCC1 | 51.4 | 33.9 | – | –
5 | O=C(N1CCN(c2ncnc3[nH]ncc23)CC1)C1(c2ccc(F)cc2)CCNCC1 | 7.4 | > 40 | – | –
6 | O=C(Cc1ccc(Cl)c(Cl)c1)N1CCN(c2ncnc3[nH]cc(Br)c23)CC1 | – | 31.5 | – | inhibition [4]: 65.5%
7 | O=C(N1CCN(c2ncnc3ccccc23)CC1)C1(c2ccc(Cl)cc2)CCNCC1 | 34.2 | > 40 | – | –
8 | O=C(N1CCN(c2ncnc3[nH]ncc23)CC1)C1(c2ccc(Cl)cc2)CCNCC1 | 38.7 | > 40 | – | –
9 | O=C(N1CCN(c2ncnc3[nH]ncc23)CC1)C1(c2ccc(Br)cc2)CCNCC1 | 11.6 | > 40 | – | –
10 | O=C(O)Cc1ccccc1Nc1c(Cl)cccc1Cl [DICLOFENAC] | – | – | – | half-life (in vitro [5]): 10.2 min; CLint scaled (in vitro [6]): 123 mL/min/kg; microsomal CLint (in vitro [6]): 136 µL/min/mg
11 | O=C(N1CCN(c2ncnc3[nH]cnc23)CC1)C1(c2ccc(Cl)cc2)CCNCC1 | 45.6 | > 40 | – | –
12 | O=C(N1CCN(c2ncnc3ccccc23)CC1)C1(c2ccc(F)cc2)CCNCC1 | 23 | 13.7 | – | –
13 | O=C(N1CCN(c2ncnc3[nH]nc(Br)c23)CC1)C1(c2ccc(F)cc2)CCNCC1 | 93.2 | 36.6 | 53.3 | –
14 | O=C(N1CCN(c2ncnc3[nH]nc(Cl)c23)CC1)C1(c2ccc(Br)cc2)CCNCC1 | 95.4 | 32.4 | 84.5 | IC50 [3]: 0.0329 µM
15 | O=C(N1CCN(c2ncnc3[nH]nc(Cl)c23)CC1)C1(c2ccc(Cl)cc2)CCNCC1 | 91.9 | 19.4 | 83.4 | IC50 [3]: 0.0666 µM
16 | O=C(Cc1ccc(Cl)cc1)N1CCN(c2ncnc3[nH]cc(Br)c23)CC1 | – | 21.1 | – | inhibition [4]: 69.7%
17 | O=C(N1CCN(c2ncnc3[nH]cnc23)CC1)C1(c2ccc(F)cc2)CCNCC1 | 94.2 | > 40 | – | –
18 | O=C(N1CCN(c2ncnc3[nH]ncc23)CC1)C1(c2ccc(Cl)c(Cl)c2)CCNCC1 | 52.1 | > 40 | – | –
19 | O=C(N1CCN(c2ncnc3[nH]nc(Cl)c23)CC1)C1(c2ccc(F)cc2)CCNCC1 | 86.7 | 37.4 | 60.9 | –
20 | O=C(N1CCN(c2ncnc3[nH]nc(Br)c23)CC1)C1(c2ccc(Br)cc2)CCNCC1 | 96.5 | 15 | 90.6 | IC50 [3]: 0.0519 µM
21 | CCn1c(-c2nonc2N)nc2c(C#CC(C)(C)O)ncc(OC[C@H]3CCCNC3)c21 [GSK-690693] | 99.5 | 14.1 | 98.5 | inhibition [7]: Active
22 | C[C@]12CC[C@H]3[C@@H](CCC4=CC(=O)CC[C@@]43C)[C@@H]1CC[C@@H]2O [TESTOSTERONE] | – | – | – | half-life (in vitro [5]): 16.9 min; remaining at 1 h (in vitro [8]): 8.1%; CLint scaled (in vitro [6]): 74 mL/min/kg; microsomal CLint (in vitro [6]): 82.2 µL/min/mg
23 | O=C(N1CCN(c2ncnc3ccccc23)CC1)C1(c2ccc(Br)cc2)CCNCC1 | 6.1 | 22.8 | – | –
24 | O=C(N1CCN(c2ncnc3[nH]nc(Br)c23)CC1)C1(c2ccc(Cl)cc2)CCNCC1 | 96.7 | 9.8 | 86.7 | IC50 [3]: 0.0269 µM
